Key:
Mus musculus [1] = assay: Anticonvulsant activity in ip dosed albino CF1 mouse assessed as protection against pentylenetetrazole-induced clonic convulsions; assay type: functional
Mus musculus [2] = assay: […] activity in ip dosed albino CF1 mouse assessed as potentiation of gamma-butyrolactone-induced sleep; assay type: functional
Mus musculus [3] = assay: Inhibition of apomorphine-induced cage climbing in ip dosed albino CF1 mouse compound administered prior to challenge measured for 5 mins after 5 mins of challenge; assay type: functional
Mus musculus [4] = assay: Inhibition of oxotremorine-induced hypothermia in ip dosed albino CF1 mouse; assay type: functional
Mus musculus [5] = assay: Potentiation of yohimbine toxicity in ip dosed aggregated albino CF1 mouse; assay type: organism-based
Mus musculus [6] = assay: Anticonvulsant activity in ip dosed albino CF1 mouse assessed as inhibition of bicucullin-induced tonic extensor convulsions; assay type: functional
Mus musculus [7] = assay: Hypothermic activity in ip dosed albino CF1 mouse assessed as effect on body temperature measured after 45 mins; assay type: functional; details: 0.75 h
Mus musculus [8] = assay: Potentiation of apomorphine-induced gnawing in ip dosed albino CF1 mouse; assay type: organism-based
Mus musculus [9] = assay: Inhibition of amphetamine aggregation toxicity in ip dosed albino CF1 mouse compound administered 1 hr prior to challenge measured after 2 hrs; assay type: functional
Mus musculus [10] = assay: Reduction of hypoxic stress in ip dosed albino CF1 mouse assessed as prolongation of hypoxic survival time; assay type: functional

SMILES	ED50 (Mus musculus [1])	ED50 (Mus musculus [2])	ED50 (Mus musculus [3])	ED50 (Mus musculus [4])	ED50 (Mus musculus [5])	ED50 (Mus musculus [6])	ED50 (Mus musculus [7])	ED50 (Mus musculus [8])	ED50 (Mus musculus [9])	ED50 (Mus musculus [10])
Nc1nnc2n1-c1ccc(Cl)cc1C(c1ccccc1)=NC2	14 mg/kg	2 mg/kg	> 50 mg/kg	> 50 mg/kg	> 50 mg/kg	20 mg/kg	9 mg/kg	> 50 mg/kg	> 50 mg/kg	> 50 mg/kg
COC(=O)Cc1nnc2n1-c1ccc(Cl)cc1C(c1ccccc1)=NC2	> 50 mg/kg	> 50 mg/kg	> 50 mg/kg	> 50 mg/kg	> 50 mg/kg	> 50 mg/kg	> 50 mg/kg	> 50 mg/kg	> 50 mg/kg	> 50 mg/kg
CN1CCN(c2nnc3n2-c2ccccc2C(c2ccccc2Cl)=NC3)CC1	6.2 mg/kg	> 25 mg/kg	4.4 mg/kg	> 25 mg/kg	> 25 mg/kg	> 25 mg/kg	0.2 mg/kg	> 25 mg/kg	> 25 mg/kg	1.1 mg/kg
CN(C)CCSc1nnc2n1-c1ccc(Cl)cc1C(c1ccccc1)=NC2	3.1 mg/kg	1.6 mg/kg	> 50 mg/kg	> 50 mg/kg	> 50 mg/kg	7.4 mg/kg	> 50 mg/kg	> 50 mg/kg	> 50 mg/kg	> 50 mg/kg
CN1C(=O)CN=C(c2ccccc2)c2cc(Cl)ccc21 [DIAZEPAM]	0.1 mg/kg	0.035 mg/kg	> 50 mg/kg	> 50 mg/kg	> 50 mg/kg	2.6 mg/kg	14.9 mg/kg	> 50 mg/kg	> 50 mg/kg	0.2 mg/kg
Sc1nnc2n1-c1ccc(Cl)cc1C(c1ccccc1)=NC2	2.3 mg/kg	0.8 mg/kg	> 50 mg/kg	> 50 mg/kg	> 50 mg/kg	3 mg/kg	9 mg/kg	> 50 mg/kg	> 50 mg/kg	9 mg/kg
CC1N=C(c2ccccc2)c2cc(Cl)ccc2-n2c1nnc2N1CCN(C)CC1 (stereo not given)	3.1 mg/kg	0.7 mg/kg	50 mg/kg	4.4 mg/kg	8.8 mg/kg	2.6 mg/kg	29.7 mg/kg	> 50 mg/kg	> 50 mg/kg	4.4 mg/kg
Cc1nnc2n1-c1ccc(Cl)cc1C(c1ccccc1)=NC2 [ALPRAZOLAM]	0.1 mg/kg	0.08 mg/kg	> 50 mg/kg	> 50 mg/kg	> 50 mg/kg	0.2 mg/kg	> 50 mg/kg	> 50 mg/kg	> 50 mg/kg	0.2 mg/kg
COc1nnc2n1-c1ccc(Cl)cc1C(c1ccccc1)=NC2	0.14 mg/kg	0.1 mg/kg	> 50 mg/kg	> 50 mg/kg	> 50 mg/kg	0.5 mg/kg	10 mg/kg	> 50 mg/kg	> 50 mg/kg	> 50 mg/kg
Clc1ccccc1C1=NCc2nncn2-c2ccccc21	> 50 mg/kg	12.5 mg/kg	> 50 mg/kg	> 50 mg/kg	> 50 mg/kg	42 mg/kg	> 50 mg/kg	> 50 mg/kg	> 50 mg/kg	> 50 mg/kg
CN1CCN(c2nnc3n2-c2ccc(Cl)cc2C(c2ccccc2Cl)=NC3)CC1	0.03 mg/kg	0.035 mg/kg	> 50 mg/kg	4.4 mg/kg	35.4 mg/kg	0.06 mg/kg	3.1 mg/kg	> 50 mg/kg	> 50 mg/kg	0.011 mg/kg
CC1N=C(c2ccccc2)c2cc(Cl)ccc2-n2c(Br)nnc21 (stereo not given)	3.7 mg/kg	3.1 mg/kg	> 50 mg/kg	> 50 mg/kg	> 50 mg/kg	1.9 mg/kg	> 50 mg/kg	> 50 mg/kg	> 50 mg/kg	> 50 mg/kg

Source: ChEMBL document CHEMBL3244037, “6-Aryl-4H-s-triazolo[4,3-a][1,4]benzodiazepines. Influence of 1-substitution on pharmacological activity” (J Med Chem, 1979)
